The values below come from ChEMBL document CHEMBL1201862, “PubChem BioAssay data set” (2004).

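Five concentrations, 48 hours, 96-well plates. GI50 is the concentration that inhibits growth by half.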 Activity calls are given as the source filed them. Cut-off read from the data, not from the text of the source: active = GI50 up to about 1.1 µM and inactive = higher.

Test systems include CCRF-CEM; HL-60; HOP-92; HT-29; MOLT-4; Malme-3M; NCI-H522; OVCAR-5; OVCAR-8; SK-MEL-2; SN12C; SNB-19; SNB-75; SR; SW-620; UACC-257; UO-31; NCI-H23.
Common to all, as to test: DTP human tumour cell line panel, 48 h

As usually defined, the GI50 is the concentration giving 50% growth inhibition. For `CCc1c(-c2coc(CC/C(C)=C/c3ccccc3)n2)oc(OC)c(C)c1=O`, the GI50 is 14.9 µM (inactive) with CCRF-CEM; 5.13 µM (inactive) in the assay with HL-60; 34.6 µM (inactive) with HOP-92; 24.8 µM (inactive) in the assay with HT-29; 10.9 µM (inactive) in the assay with MOLT-4; > 59.8 µM (inactive) with Malme-3M. Besides, the GI50 with NCI-H522 is 0.209 µM (active); in the assay with OVCAR-5, > 100 µM (inactive); with OVCAR-8, 19.9 µM (inactive); in the assay with SK-MEL-2 it was 60.1 µM (inactive); in the assay on SN12C, > 42.1 µM (inactive); in the assay on SNB-19, 23.1 µM (inactive). The GI50 is 49.4 µM (inactive) with SNB-75; < 0.01 µM (active) in the assay on SR; 9.25 µM (inactive) with SW-620; > 100 µM (inactive) in the assay with UACC-257; 5.35 µM (inactive) with UO-31.
In the case of `CC(=O)O[C@]12CCCCC1C1(O)C(O)CCCC[C@H]12` (some centres not stated), the GI50 with CCRF-CEM, in the assay with HL-60, in the assay on HT-29, with MOLT-4, with Malme-3M and in the assay on NCI-H23 was > 100 µM (inactive) each time. The GI50 with NCI-H522 was > 100 µM (inactive); with OVCAR-8, > 100 µM (inactive); in the assay with SK-MEL-2, > 100 µM (inactive); with SN12C, > 100 µM (inactive); in the assay with SNB-19 it was > 100 µM (inactive); with SNB-75, 29.6 µM (inactive). For the same compound, the GI50 in the assay on SR, with SW-620, with UACC-257 and in the assay on UO-31 was > 100 µM (inactive) each time.
On to `CC(=O)OC12C=CC(=O)N1c1ccccc1C(=O)O2` (configuration not stated), for which the GI50 in the assay on CCRF-CEM is > 100 µM (inactive); in the assay on HL-60, > 100 µM (inactive); in the assay on HOP-92, > 100 µM (inactive); in the assay on HT-29 it was > 100 µM (inactive); with MOLT-4, > 100 µM (inactive); in the assay with Malme-3M, 0.962 µM (active). Further, the GI50 in the assay with NCI-H23, in the assay on NCI-H522, in the assay on OVCAR-5, in the assay with OVCAR-8, in the assay with SK-MEL-2 and in the assay on SN12C was > 100 µM (inactive) in each case. Also, the GI50 in the assay with SNB-19, in the assay with SNB-75, with SR, in the assay on SW-620, in the assay on UACC-257 and with UO-31 was > 100 µM (inactive) each time.
`C=CC1(C)CCC(C(C)C(=O)C(C=C(C)C)OC(C)=O)C12C(=O)Oc1ccccc1C2=O` (configuration not stated): the GI50 is 27 µM (inactive) in the assay on CCRF-CEM; 19.7 µM (inactive) with HL-60; 40.2 µM (inactive) in the assay on HOP-92; 35.3 µM (inactive) in the assay with HT-29; 26.2 µM (inactive) with MOLT-4; 48.5 µM (inactive) in the assay on Malme-3M. Also, the GI50 is 46.7 µM (inactive) with NCI-H23; 31.6 µM (inactive) in the assay on NCI-H522; 37.6 µM (inactive) in the assay with OVCAR-8; 32.7 µM (inactive) with SK-MEL-2; 49.4 µM (inactive) in the assay on SN12C; > 100 µM (inactive) in the assay with SNB-19. Besides, the GI50 in the assay with SNB-75 is 52.5 µM (inactive); in the assay with SR, 33.6 µM (inactive); in the assay on SW-620, 63.8 µM (inactive); in the assay with UACC-257, 35 µM (inactive); in the assay with UO-31, 34.4 µM (inactive).
`NC(=O)C(=O)N/N=C(\CC1(O)C(=O)Nc2ccccc21)c1ccc2ccccc2c1` (configuration not stated): the GI50 in the assay with CCRF-CEM is 20.3 µM (inactive); with HL-60, 16.6 µM (inactive); in the assay with HOP-92, 39 µM (inactive); in the assay with HT-29, 34.4 µM (inactive); with MOLT-4, 20.9 µM (inactive); with Malme-3M, 61.7 µM (inactive). Further, the GI50 was 29.6 µM (inactive) in the assay on NCI-H23; 18.7 µM (inactive) in the assay with NCI-H522; > 100 µM (inactive) in the assay with OVCAR-5; 56 µM (inactive) in the assay on OVCAR-8; 22.1 µM (inactive) in the assay with SK-MEL-2; 26.3 µM (inactive) with SN12C. Moreover, the GI50 was 22.9 µM (inactive) in the assay on SNB-19; 40.6 µM (inactive) with SNB-75; 18.2 µM (inactive) in the assay on SR; 33.5 µM (inactive) with SW-620; 28.5 µM (inactive) in the assay with UACC-257; 40.1 µM (inactive) with UO-31.
As for `N#Cc1ccccc1C(Cl)(Cl)c1cnccn1`, the GI50 was 20 µM (inactive) with CCRF-CEM; 28.6 µM (inactive) in the assay with HL-60; 25.4 µM (inactive) with HOP-92; 57.4 µM (inactive) in the assay with HT-29; 22.6 µM (inactive) with MOLT-4; 38.5 µM (inactive) in the assay with NCI-H23. Moreover, the GI50 with NCI-H522 is 19.8 µM (inactive); in the assay on OVCAR-5 it was > 100 µM (inactive); with OVCAR-8 it was 26.3 µM (inactive); in the assay on SK-MEL-2 it was 67 µM (inactive); in the assay with SN12C, 74.8 µM (inactive); with SNB-19, 56.5 µM (inactive). Moreover, the GI50 with SR is 34 µM (inactive); with SW-620, 99.3 µM (inactive); with UACC-257, 88.1 µM (inactive); with UO-31, 33.3 µM (inactive).
For `CCOC(=O)/C(=C/c1ccc(N(C)C)cc1)N(CC)CC`, the GI50 is 27 µM (inactive) with CCRF-CEM; 27.2 µM (inactive) in the assay with HL-60; > 100 µM (inactive) in the assay with HOP-92; 32.2 µM (inactive) in the assay on MOLT-4; > 100 µM (inactive) in the assay with Malme-3M; 49.4 µM (inactive) in the assay with NCI-H23. Besides, the GI50 with NCI-H522 was 34.3 µM (inactive); in the assay with OVCAR-5, > 100 µM (inactive); in the assay with OVCAR-8 it was > 100 µM (inactive); in the assay with SK-MEL-2 it was 58.2 µM (inactive); in the assay with SN12C it was 84.7 µM (inactive); in the assay on SNB-19, > 100 µM (inactive). The GI50 in the assay on SR is 48.6 µM (inactive); in the assay with SW-620 it was 44 µM (inactive); in the assay on UACC-257, 35.8 µM (inactive); with UO-31 it was 68.5 µM (inactive).
As to `COC(=O)c1ccc2n[se]nc2c1`, the GI50 in the assay with CCRF-CEM, with HL-60, in the assay on HT-29, in the assay on MOLT-4, with Malme-3M and in the assay on NCI-H23 was > 100 µM (inactive) in each case. Besides, the GI50 with NCI-H522, in the assay with OVCAR-5, with OVCAR-8, with SK-MEL-2, with SN12C and in the assay on SNB-19 was > 100 µM (inactive) each time. The GI50 in the assay on SNB-75 is 83.6 µM (inactive); in the assay on SR it was > 100 µM (inactive); in the assay on SW-620, > 100 µM (inactive); with UACC-257, > 100 µM (inactive); with UO-31 it was > 100 µM (inactive).
Consider `COC(=O)C1[C@@H](C(=O)OC)C12C=Cc1ccccc1C=C2` (some centres not stated), for which the GI50 in the assay with CCRF-CEM, with HL-60, in the assay on HOP-92, with MOLT-4, in the assay with Malme-3M and with NCI-H23 was > 100 µM (inactive) each time. For the same compound, the GI50 in the assay on NCI-H522, with OVCAR-5, with OVCAR-8, in the assay on SK-MEL-2, in the assay on SN12C and in the assay with SNB-19 was > 100 µM (inactive) in each case. Moreover, the GI50 with SR, in the assay on SW-620, with UACC-257 and in the assay on UO-31 was > 100 µM (inactive) each time.
Regarding `CC(=O)Nc1ccc(C2C(C(=O)Nc3ccccc3C)=C(C)NC(C)=C2C(=O)Nc2ccccc2C)cc1`, the GI50 was > 100 µM (inactive) in the assay with CCRF-CEM; 39.5 µM (inactive) in the assay with HL-60; > 100 µM (inactive) in the assay with HOP-92; > 100 µM (inactive) in the assay on HT-29; > 100 µM (inactive) in the assay on Malme-3M; > 100 µM (inactive) with NCI-H23. Besides, the GI50 with NCI-H522 was > 100 µM (inactive); in the assay on OVCAR-5, > 100 µM (inactive); in the assay on OVCAR-8 it was > 92 µM (inactive); in the assay with SK-MEL-2, > 100 µM (inactive); with SN12C it was > 100 µM (inactive); with SNB-19, > 100 µM (inactive). Moreover, the GI50 in the assay with SNB-75 is > 61.2 µM (inactive); in the assay on SR, 20.1 µM (inactive); in the assay on SW-620, > 100 µM (inactive); with UACC-257, 96.6 µM (inactive); in the assay with UO-31, > 100 µM (inactive).
As for `C=CCCC(C)N(C(=O)OC(C)(C)C)S(=O)(=O)c1ccc(C)cc1` (configuration not stated), the GI50 was > 100 µM (inactive) in the assay with HL-60; 40.2 µM (inactive) in the assay on HOP-92; > 100 µM (inactive) in the assay on HT-29; 97.1 µM (inactive) with MOLT-4; > 100 µM (inactive) in the assay with Malme-3M; > 100 µM (inactive) in the assay with NCI-H23. Besides, the GI50 with NCI-H522, with OVCAR-5, in the assay on OVCAR-8, in the assay with SK-MEL-2, in the assay with SN12C and in the assay with SNB-19 was > 100 µM (inactive) in each case. Besides, the GI50 with SNB-75, with SR, in the assay with SW-620, with UACC-257 and in the assay with UO-31 was > 100 µM (inactive) throughout.
For the compound `CC1CCC(=O)C(C(O)CC2CC(=O)N(c3ccccc3)C(=O)C2)C1` (configuration not stated), the GI50 with CCRF-CEM, in the assay on HL-60, in the assay with HOP-92, in the assay with HT-29, in the assay with MOLT-4 and with Malme-3M was > 100 µM (inactive) throughout. The GI50 with NCI-H23, with NCI-H522, in the assay on OVCAR-5, with OVCAR-8, in the assay on SN12C and in the assay on SNB-19 was > 100 µM (inactive) each time. The GI50 with SNB-75, with SR, in the assay on SW-620, with UACC-257 and in the assay on UO-31 was > 100 µM (inactive) throughout.
